Our source for the IC50 values is patent US8604016B2, “Heterocyclic inhibitors of glutaminase” (Calithera Biosciences Inc., priority 2011, dated 2013).

SMILES strings stand for the structures.

The test has as its target recombinant form of Glutaminase 1 (GAC) (Homo sapiens, UniProt O94925). The test can be described thus: Recombinant Enzyme Assay (GAC coupled to GDH, NADH absorbance, no preincubation). The test is classed as biochemical. The note with it: no preincubation; read-out: GAC Delta N2 IC50 no preinc. The procedure:
Enzymatic reaction was started with the addition of 50 μL of enzyme solution (50 mM Tris-HCl pH 8.0, 0.2 mM EDTA, 150 mM K2HPO4, 0.1 mg/ml BSA, 1 mM DTT, 10 ppm antifoam, 4 units/ml GDH, 4 mM adenosine diphosphate, and 4 nM GAC) and read in a Molecular Devices M5 plate reader at 20° C. The plate reader was configured to read absorbance (λ=340 nm) in kinetic mode for 15 minutes. Data was recorded as milli-absorbance units per minute and slopes were compared to a control compound and a DMSO-only control on the same plate. Compounds with slopes less than the DMSO control were considered inhibitors and plate variability was assessed using the control compound.
`COc1ccc(CC(=O)Nc2nnc(CCSCCc3nnc(NC(=O)Cc4ccc(OC)c(OC)c4)s3)s2)cc1OC` [Compound 157]: the IC50 was found to be 340 nM.

In the case of `O=C(Cc1ccccc1)Nc1nnc(CCCCc2nnc(NC(=O)Cc3cccnc3)s2)s1` [Compound 309], the IC50 was 110 nM.

`O=C(Nc1nnc(CCCCc2nnc(NC(=O)C3(c4ccccc4)CCOCC3)s2)s1)C1(c2ccccc2)CCOCC1` [Compound 166]: the IC50 was found to be 7400 nM.

Consider `O=C(Cc1cccc(F)c1)Nc1nnc(CCCCc2nnc(NC(=O)Cc3cccc(F)c3)s2)s1` [Compound 273], for which the IC50 was 140 nM.

On to `CCCC(=O)OCN(C(=O)Cc1ccccc1)c1nnc(CCSCCc2nnc(NC(=O)Cc3ccccc3)s2)s1` [Compound 7], for which the IC50 is > 50000 nM.

With `N#Cc1ccc(CC(=O)Nc2nnc(CCSCCc3nnc(NC(=O)Cc4ccc(C#N)cc4)s3)s2)cc1` [Compound 216], the IC50 turned out to be 890 nM.

In the case of `O=C(Cc1cccc(-n2cccc2)c1)Nc1nnc(CCCCc2nnc(NC(=O)Cc3cccc(-n4cccc4)c3)s2)s1` [Compound 330], the IC50 was > 20000 nM.

`CC(C)[C@H](NC(=O)OC(C)(C)C)C(=O)Nc1nnc(CCCCc2nnc(NC(=O)[C@@H](NC(=O)OC(C)(C)C)C(C)C)s2)s1` [Compound 42]: the IC50 is > 50000 nM.

For the molecule `COc1ccccc1C(CO)C(=O)Nc1nnc(CCSCCc2nnc(NC(=O)C(CO)c3ccccc3OC)s2)s1` (stereo not drawn) [Compound 245], the IC50 came out at 520 nM.

Regarding `CC(C)COC(=O)Nc1nnc(CCCCc2nnc(NC(=O)Cc3ccccc3)s2)s1` [Compound 370], the IC50 was found to be 280 nM.

`CC(C)[C@H](NC(=O)OC(C)(C)C)C(=O)OCC(C(=O)Nc1nnc(CCCCc2nnc(NC(=O)C(COC(=O)[C@@H](NC(=O)OC(C)(C)C)C(C)C)c3ccccc3)s2)s1)c1ccccc1` (stereo partly drawn) [Compound 272]: the IC50 was > 20000 nM.

Take `O=C(CC1CCCNC1)Nc1nnc(CCSCCc2nnc(NC(=O)CC3CCCNC3)s2)s1` (stereo not drawn) [Compound 124]: the IC50 was > 20000 nM.

For `O=C(CC1CCNCC1)Nc1nnc(CCSCCc2nnc(NC(=O)CC3CCNCC3)s2)s1` [Compound 129], the IC50 was > 20000 nM.

For `C[C@H](N)C(=O)Nc1nnc(CCSCCc2nnc(NC(=O)[C@H](C)N)s2)s1` [Compound 74], the IC50 is > 50000 nM.

On to `COc1ccc(C(=O)Nc2nnc(CCSCCc3nnc(NC(=O)c4ccc(OC)cc4)s3)s2)cc1` [Compound 3], for which the IC50 is > 50000 nM.

With `O=C(Cc1ccc(Cl)s1)Nc1nnc(CCSCCc2nnc(NC(=O)Cc3ccc(Cl)s3)s2)s1` [Compound 206], the IC50 was > 20000 nM.

Take `O=C(Cc1ccsc1)Nc1nnc(CCSCCc2nnc(NC(=O)Cc3ccsc3)s2)s1` [Compound 84]: the IC50 was 230 nM.

As for `O=C(Cc1ccccc1)Nc1nnc(CCSCc2nnc(NC(=O)Cc3cccc(OCCN4CCOCC4)c3)s2)s1` [Compound 378], the IC50 was 220 nM.

In the case of `O=C(Cc1cccs1)Nc1nnc(CCCCc2nnc(NC(=O)Cc3cccs3)s2)s1` [Compound 87], the IC50 was found to be 180 nM.

Consider `O=C(Cc1ccc2ncccc2c1)Nc1nnc(CCCCc2nnc(NC(=O)Cc3ccc4ncccc4c3)s2)s1` [Compound 269], for which the IC50 came to 260 nM.

For `CC(C)(C)OC(=O)Nc1cccc(CC(=O)Nc2nnc(CCSCCc3nnc(NC(=O)Cc4cccc(NC(=O)OC(C)(C)C)c4)s3)s2)c1` [Compound 98], the IC50 is > 20000 nM.

Regarding `CCOC(=O)Nc1nnc(CCCCc2nnc(NC(=O)Cc3ccccc3)s2)s1` [Compound 369], the IC50 worked out at 810 nM.

For the molecule `COCCC(=O)Nc1nnc(CCSCCc2nnc(NC(=O)CCOC)s2)s1` [Compound 101], the IC50 is 24000 nM.

`CC[C@@](O)(C(=O)Nc1nnc(CCSCCc2nnc(NC(=O)[C@](O)(CC)c3ccccc3)s2)s1)c1ccccc1` [Compound 142]: the IC50 is > 20000 nM.

As for `N[C@H](C(=O)Nc1nnc(CCSCCc2nnc(NC(=O)[C@@H](N)c3ccccc3)s2)s1)c1ccccc1` [Compound 175], the IC50 stood at 6300 nM.

On to `O=C(CCN1CCOCC1)OC(C(=O)Nc1nnc(CCCCc2nnc(NC(=O)C(O)c3cccc(Cl)c3)s2)s1)c1cccc(Cl)c1` (stereo not drawn) [Compound 358], for which the IC50 came to 1400 nM.

In the case of `O=C(Cc1ccccc1)Nc1ccc(CCCCc2ccc(NC(=O)Cc3ccccc3)nn2)nn1` [Compound 1038], the IC50 worked out at 80 nM.

As for `O=C(Cc1ccccc1)Nc1nnc(CCSCc2nnc(NC(=O)Cc3cccc(Cl)c3)s2)s1` [Compound 372], the IC50 was 160 nM.

`O=C(Cc1ccccc1)Nc1nnc(CCCCc2nnc(NC(=O)Cc3c(Cl)ccc(O)c3F)s2)s1` [Compound 345]: the IC50 was 160 nM.

Regarding `O=C(Nc1nnc(CCSCCc2nnc(NC(=O)c3ccccc3CO)s2)s1)c1ccccc1CO` [Compound 180], the IC50 was 8800 nM.

For the molecule `O=C(Cc1cccc(OCCN2CCOCC2)c1)Nc1nnc(CCSCc2nnc(NC(=O)Cc3cccc(OCCN4CCOCC4)c3)s2)s1` [Compound 267], the IC50 came out at 610 nM.

With `O=C(Cc1ccccc1)Nc1nnc(CCSCc2nnc(NC(=O)[C@@H](O)c3ccccc3)s2)s1` [Compound 377], the IC50 worked out at 280 nM.

For the molecule `O=C(Nc1nnc(CCSCCc2nnc(NC(=O)C3CCc4ccccc4C3)s2)s1)C1CCc2ccccc2C1` (stereo not drawn) [Compound 37], the IC50 is > 50000 nM.

On to `COc1ccccc1CC(=O)Nc1nnc(CCSCc2nnc(NC(=O)Cc3ccccc3OC)s2)s1` [Compound 249], for which the IC50 was 120 nM.

Take `O=C(CC1CCNCC1)Nc1nnc(CCCCc2nnc(NC(=O)CC3CCNCC3)s2)s1` [Compound 132]: the IC50 is > 20000 nM.

Turning to `CC[C@](O)(C(=O)Nc1nnc(CCCCc2nnc(NC(=O)[C@@](O)(CC)c3ccccc3)s2)s1)c1ccccc1` [Compound 143], the IC50 is 570 nM.

For the molecule `O=C(Cc1ccco1)Nc1nnc(CCCCc2nnc(NC(=O)Cc3ccco3)s2)s1` [Compound 86], the IC50 stood at 320 nM.

On to `O=C(CN1C(=O)OC[C@H]1c1ccccc1)Nc1nnc(CCSCCc2nnc(NC(=O)CN3C(=O)OC[C@H]3c3ccccc3)s2)s1` [Compound 243], for which the IC50 came to 2700 nM.

With `COc1ccc(Cl)c(CC(=O)Nc2nnc(CCCCc3nnc(NC(=O)Cc4ccccc4)s3)s2)c1F` [Compound 343], the IC50 stood at 160 nM.

On to `O=C(Nc1nnc(CCCc2nnc(NC(=O)C(O)c3ccccc3)s2)s1)C(O)c1ccccc1` (stereo not drawn) [Compound 172], for which the IC50 was 1700 nM.

As for `CC(C)(C)c1ccc(CC(=O)Nc2nnc(CCSCCc3nnc(NC(=O)Cc4ccc(C(C)(C)C)cc4)s3)s2)cc1` [Compound 184], the IC50 was > 20000 nM.

Take `Cn1cc(CC(=O)Nc2nnc(CCSCCc3nnc(NC(=O)Cc4cn(C)c5ccccc45)s3)s2)c2ccccc21` [Compound 200]: the IC50 is 610 nM.

In the case of `O=C(Cc1ccccc1)Nc1nnc(CCCCc2nnc(NC(=O)Cc3ccccc3CO)s2)s1` [Compound 333], the IC50 came to 100 nM.

`O=C(Nc1nnc(CCSCCc2nnc(NC(=O)C3CCOCC3)s2)s1)C1CCOCC1` [Compound 108]: the IC50 was > 20000 nM.

Regarding `O=C(Nc1nnc(CCCCc2nnc(NC(=O)c3ccnn3-c3ccccc3)s2)s1)c1ccnn1-c1ccccc1` [Compound 229], the IC50 was 3900 nM.

As for `O=C(Nc1nnc(CCCCc2nnc(NC(=O)[C@@H](O)Cc3ccccc3)s2)s1)[C@@H](O)Cc1ccccc1` [Compound 146], the IC50 turned out to be 430 nM.

Take `COc1ccccc1-c1cccc(CC(=O)Nc2nnc(CCCCc3nnc(NC(=O)Cc4cccc(-c5ccccc5OC)c4)s3)s2)c1` [Compound 326]: the IC50 is > 20000 nM.

For the molecule `O=C(Nc1nnc(CCCCc2nnc(NC(=O)C3Cc4ccccc4O3)s2)s1)C1Cc2ccccc2O1` (stereo not drawn) [Compound 51], the IC50 is 1200 nM.

Turning to `O=C(Cc1ccccc1)Nc1ccc(CCCCc2nnc(NC(=O)C(OC(=O)CCN3CCOCC3)c3ccccc3)s2)nn1` (stereo not drawn) [Compound 334], the IC50 worked out at 640 nM.

For `CC(C)(C)OC(=O)N1CCN(C(C(=O)Nc2nnc(CCSCCc3nnc(NC(=O)Cc4ccccc4)s3)s2)c2ccccc2)CC1` (stereo not drawn) [Compound 70], the IC50 was determined as 3400 nM.

For `Cc1cccc(CC(=O)Nc2nnc(CCSCCc3nnc(NC(=O)Cc4cccc(C)c4)s3)s2)c1` [Compound 247], the IC50 was 190 nM.

With `Nc1ccc(CC(=O)Nc2nnc(CCSCCc3nnc(NC(=O)Cc4ccc(N)cc4)s3)s2)cc1` [Compound 195], the IC50 came out at 300 nM.

As for `CC(C)CC(=O)Nc1nnc(CCSCCc2nnc(NC(=O)CC(C)C)s2)s1` [Compound 4], the IC50 is 13000 nM.

Consider `CC(CCc1nnc(NC(=O)Cc2ccccc2)s1)Cc1nnc(NC(=O)Cc2ccccc2)s1` (stereo not drawn) [Compound 44], for which the IC50 stood at 4900 nM.

With `O=C(Cc1ccccc1Br)Nc1nnc(CCSCCc2nnc(NC(=O)Cc3ccccc3Br)s2)s1` [Compound 283], the IC50 worked out at 660 nM.

As for `CC(=O)N[C@@H](C(=O)Nc1nnc(CCSCCc2nnc(NC(=O)[C@H](NC(C)=O)c3ccccc3)s2)s1)c1ccccc1` [Compound 128], the IC50 was found to be 32000 nM.

With `COc1ccccc1CC(=O)Nc1nnc(CCCCc2nnc(NC(=O)Cc3ccccc3OC)s2)s1` [Compound 264], the IC50 is 72 nM.

Regarding `O=C(Nc1nnc(CCCCc2nnc(NC(=O)[C@H](O)Cc3ccccc3)s2)s1)[C@H](O)Cc1ccccc1` [Compound 169], the IC50 came to 710 nM.

For `O=C(Cc1ccccc1)Nc1nnc(CCSCCc2nnc(NC(=O)Cc3ccccn3)s2)s1` [Compound 359], the IC50 was 380 nM.

`CC(C)(C)OC(=O)N1CCN(C(C(=O)Nc2nnc(CCSCCc3nnc(NC(=O)C(c4ccccc4)N4CCN(C(=O)OC(C)(C)C)CC4)s3)s2)c2ccccc2)CC1` (stereo not drawn) [Compound 76]: the IC50 is > 50000 nM.

As to `CC(O)(C(=O)Nc1nnc(CCSCCc2nnc(N)s2)s1)C(F)(F)F` (stereo not drawn) [Compound 56], the IC50 was > 50000 nM.

Turning to `COC(=O)Nc1nnc(CCCCc2nnc(NC(=O)Cc3ccccc3)s2)s1` [Compound 387], the IC50 stood at 1200 nM.

Turning to `CC(=O)Nc1nnc(CCSCCc2nnc(N)s2)s1` [Compound 357], the IC50 is > 20000 nM.
